Data from patent publication US12428427B2, “Methods and compositions for targeting PD-L1” (Aligos Therapeutics, Inc., priority 2021, dated 2025).

Legend:
PDL1/PD1 = PDL1/PD1 (Homo sapiens, UniProt Q9NZQ7); assay: PDL1/PD1 Binding Assay; settings: PDL1-6×His 0.3 nM, PD1-Fc-Avi-Biotin 2.5 nM, Acceptor/Donor beads; read-out: PD-1/PD-L1 PPI IC50
Description: Compounds to be tested were serially diluted in DMSO, and further diluted in assay buffer (25 mM Hepes pH 7.4, 150 mM NaCl, 0.005% Tween 20, BSA 0.01%). Diluted compounds were added to the wells with final concentration of DMSO at 1%. PDL1-6×His protein was added to the wells, mixed well with compound. The plates were incubated for 30 min at room temperature. PD1-Fc-Avi-Biotin protein was added to the wells. Final concentration of PDL1 and PD1 protein is 0.3 nM and 2.5 nM, respectively. After a binding time of 30 min at room temperature, Anti-6×His Acceptor beads (final concentration 20 ug/ml) were added to the wells, and the incubation continued for 1 h. Streptavidin Donor beads (final concentration 20 ug/mL) were added at reduced light. The plates were sealed with foil and incubated in the dark for additional 1 h or overnight before reading on an Envision reader. The IC50 values were determined by fitting the curves using a four-parameter equation in Graphpad Prism 8.

PD-1/PD-L1 interaction = target: T1, PD-1/PD-L1 interaction (Homo sapiens, UniProt Q9NZQ7); assay: PD-1/PD-L1 NFAT Reporter Assay; type: cell-based; settings: co-culture of PD-L1 expressing CHO cells and PD-1 overexpressing Jurkat cells, 6 hrs, NFAT luciferase
T1 construct: expressed in transfected cells; Jurkat cells (PD-1 plus NFAT-luciferase)
T1 sequence (Q9NZQ7 19-290): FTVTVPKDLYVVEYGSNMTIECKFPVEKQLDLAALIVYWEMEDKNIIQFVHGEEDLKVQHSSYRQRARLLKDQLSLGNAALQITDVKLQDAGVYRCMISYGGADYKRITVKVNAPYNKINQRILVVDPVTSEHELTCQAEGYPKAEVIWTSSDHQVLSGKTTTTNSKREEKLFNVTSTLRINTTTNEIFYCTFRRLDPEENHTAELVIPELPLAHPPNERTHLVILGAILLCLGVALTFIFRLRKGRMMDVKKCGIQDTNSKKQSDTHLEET
Description: Blocking the PD-1/PD-L1 interaction will release the inhibitory signal and results in TCR signaling and NFAT-mediated luciferase activity.
CHO cells expressing surface-bound anti-CD3 antibodies and PD-L1 were first seeded overnight and treated with the compounds. Jurkat cells overexpressing PD-1 and a luciferase construct under NFAT promoter were then immediately seeded on the monolayer of CHO cells. The co-culture was then incubated for 6 hrs at 37° C. Luciferase activity was assessed by adding the ONE-Glo reagent and measuring luminescence with a plate reader. EC50 values were determined from the fit of the dose-response curves.

Chain of PDL1/PD1 (Q9NZQ7 19-238 limits assumed): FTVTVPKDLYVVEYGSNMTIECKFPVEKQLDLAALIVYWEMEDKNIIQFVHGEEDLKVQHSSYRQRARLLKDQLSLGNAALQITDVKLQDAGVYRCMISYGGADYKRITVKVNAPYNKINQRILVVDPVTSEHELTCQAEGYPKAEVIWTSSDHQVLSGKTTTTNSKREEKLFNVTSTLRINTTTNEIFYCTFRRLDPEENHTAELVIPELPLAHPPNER

Row | IC50 (PDL1/PD1) [nM] | EC50 (PD-1/PD-L1 interaction) [nM] | Structure (SMILES)
1 | ≤ 10 | ≤ 10 | COc1nc(-c2cccc(-c3cccc(NC(=O)c4ccnn(C)c4=O)c3C)c2Cl)ccc1CNC1CCN(C(C)=O)C[C@@H]1O (stereo in doubt) [Compound C-69]
2 | ≤ 10 | 10 to 100 | COc1nc(-c2cccc(-c3cccc(NC(=O)c4ccnn(C)c4=O)c3Cl)c2Cl)cnc1CN1CC2(CCC(=O)N2)C1 [Compound A-1]
3 | ≤ 10 | 10 to 100 | COc1nc(-c2cccc(-c3cccc(NC(=O)c4ccn[nH]c4=O)c3Cl)c2Cl)cnc1CN1CC2(CCC(=O)N2)C1 [Compound A-2]
4 | ≤ 10 | 100 to 1000 | COc1nc(-c2cccc(-c3cccc(NC(=O)c4cc(Cl)n[nH]c4=O)c3Cl)c2Cl)cnc1CN1CC2(CCC(=O)N2)C1 [Compound A-3]
5 | ≤ 10 | 100 to 1000 | COc1nc(-c2cccc(-c3cccc(NC(=O)c4cc(C)n[nH]c4=O)c3Cl)c2Cl)cnc1CN1CC2(CCC(=O)N2)C1 [Compound A-4]
6 | ≤ 10 | 10 to 100 | COc1nc(-c2cccc(-c3cccc(NC(=O)c4ccnn(C)c4=O)c3Cl)c2Cl)cnc1CNC[C@@H]1CCC(=O)N1 [Compound B-1]
7 | ≤ 10 | 10 to 100 | COc1nc(-c2cccc(-c3cccc(NC(=O)c4ccnn(C)c4=O)c3Cl)c2Cl)ccc1CNC[C@@H]1CCC(=O)N1 [Compound B-2]
8 | ≤ 10 | ≤ 10 | COc1nc(-c2cccc(-c3cccc(NC(=O)c4ccnn(C)c4=O)c3Cl)c2Cl)cc(C)c1CNC[C@@H]1CCC(=O)N1 [Compound B-3]
9 | ≤ 10 | 10 to 100 | COc1nc(-c2cccc(-c3cccc(NC(=O)c4ccnn(C)c4=O)c3C)c2F)cc(C)c1CNC[C@@H]1CCC(=O)N1 [Compound B-4]
10 | ≤ 10 | 100 to 1000 | COc1nc(-c2cccc(-c3cccc(NC(=O)c4ccnn(C)c4=O)c3C)c2Cl)cnc1CNC[C@@H]1CCC(=O)N1 [Compound B-5]
11 | ≤ 10 | ≤ 10 | COc1nc(-c2cccc(-c3cccc(NC(=O)c4ccnn(C)c4=O)c3C)c2Cl)ccc1CNC[C@@H]1CCC(=O)N1 [Compound B-6]
12 | ≤ 10 | ≤ 10 | COc1nc(-c2cccc(-c3cccc(NC(=O)c4ccnn(C)c4=O)c3C)c2Cl)cc(C)c1CNC[C@@H]1CCC(=O)N1 [Compound B-7]
13 | ≤ 10 | > 10000 | COc1nc(-c2cccc(-c3cccc(NC(=O)c4ccnn(C)c4=O)c3Cl)c2Cl)ccc1CN[C@@H]1CCOC[C@@H]1O [Compound C-1]
14 | ≤ 10 | 10 to 100 | COc1nc(-c2cccc(-c3cccc(NC(=O)c4ccnn(C)c4=O)c3Cl)c2Cl)ccc1CNCCO [Compound C-2]
15 | ≤ 10 | 10 to 100 | COc1nc(-c2cccc(-c3cccc(NC(=O)c4ccnn(C)c4=O)c3Cl)c2Cl)ccc1CNC[C@H](C)O [Compound C-3]
16 | ≤ 10 | ≤ 10 | COc1nc(-c2cccc(-c3cccc(NC(=O)c4ccnn(C)c4=O)c3Cl)c2Cl)ccc1CNC[C@@H](C)O [Compound C-4]
17 | ≤ 10 | 10 to 100 | COc1nc(-c2cccc(-c3cccc(NC(=O)c4ccnn(C)c4=O)c3Cl)c2Cl)ccc1CNCC(C)(C)O [Compound C-5]
18 | ≤ 10 | 10 to 100 | COc1nc(-c2cccc(-c3cccc(NC(=O)c4ccnn(C)c4=O)c3Cl)c2Cl)ccc1CNC1CC1 [Compound C-6]
19 | ≤ 10 | ≤ 10 | COc1nc(-c2cccc(-c3cccc(NC(=O)c4ccnn(C)c4=O)c3Cl)c2Cl)ccc1CN1CC(O)C1 [Compound C-7]
20 | ≤ 10 | 10 to 100 | COc1nc(-c2cccc(-c3cccc(NC(=O)c4ccnn(C)c4=O)c3Cl)c2Cl)ccc1CN1CC(OC)C1 [Compound C-8]
21 | ≤ 10 | ≤ 10 | COc1nc(-c2cccc(-c3cccc(NC(=O)c4ccnn(C)c4=O)c3Cl)c2Cl)ccc1CN1CC(C(=O)O)C1 [Compound C-9]
22 | ≤ 10 | 100 to 1000 | COc1nc(-c2cccc(-c3cccc(NC(=O)c4ccnn(C)c4=O)c3Cl)c2Cl)ccc1CN1CCCC[C@H]1C(=O)O [Compound C-10]
23 | ≤ 10 | 100 to 1000 | COc1nc(-c2cccc(-c3cccc(NC(=O)c4ccnn(C)c4=O)c3Cl)c2Cl)ccc1CN1CCCC[C@@H]1C(=O)O [Compound C-11]
24 | ≤ 10 | 10 to 100 | COc1nc(-c2cccc(-c3cccc(NC(=O)c4ccnn(C)c4=O)c3Cl)c2Cl)ccc1CN[C@](C)(CO)C(=O)O [Compound C-12]
25 | ≤ 10 | 10 to 100 | CCOC(=O)C1CN(Cc2ccc(-c3cccc(-c4cccc(NC(=O)c5ccnn(C)c5=O)c4Cl)c3Cl)nc2OC)C1 [Compound C-13]

Row | IC50 (PDL1/PD1) [nM] | EC50 (PD-1/PD-L1 interaction) [nM] | Structure (SMILES)
26 | 10 to 100 | 10 to 100 | CCOC(=O)[C@@H]1CCN(Cc2ccc(-c3cccc(-c4cccc(NC(=O)c5ccnn(C)c5=O)c4Cl)c3Cl)nc2OC)C1 [Compound C-14]
27 | 10 to 100 | 10 to 100 | CCOC(=O)[C@H]1CCN(Cc2ccc(-c3cccc(-c4cccc(NC(=O)c5ccnn(C)c5=O)c4Cl)c3Cl)nc2OC)C1 [Compound C-15]
28 | ≤ 10 | 10 to 100 | COc1nc(-c2cccc(-c3cccc(NC(=O)c4ccnn(C)c4=O)c3Cl)c2Cl)ccc1CN1CC[C@@H](C(=O)O)C1 [Compound C-16]
29 | ≤ 10 | 10 to 100 | COc1nc(-c2cccc(-c3cccc(NC(=O)c4ccnn(C)c4=O)c3Cl)c2Cl)ccc1CN1CC[C@H](C(=O)O)C1 [Compound C-17]
30 | ≤ 10 | 10 to 100 | COC(=O)C1(F)CN(Cc2ccc(-c3cccc(-c4cccc(NC(=O)c5ccnn(C)c5=O)c4Cl)c3Cl)nc2OC)C1 [Compound C-18]
31 | ≤ 10 | 10 to 100 | COc1nc(-c2cccc(-c3cccc(NC(=O)c4ccnn(C)c4=O)c3Cl)c2Cl)ccc1CN1CC(F)(C(=O)O)C1 [Compound C-19]
32 | ≤ 10 | 10 to 100 | COc1nc(-c2cccc(-c3cccc(NC(=O)c4ccnn(C)c4=O)c3Cl)c2Cl)ccc1CN1CC(C)(C(=O)O)C1 [Compound C-20]
33 | 10 to 100 | 100 to 1000 | CCOC(=O)C1(C)CN(Cc2ccc(-c3cccc(-c4cccc(NC(=O)c5ccnn(C)c5=O)c4Cl)c3Cl)nc2OC)C1 [Compound C-21]
34 | ≤ 10 | 100 to 1000 | COC(=O)C12CCC(CC1)N(Cc1ccc(-c3cccc(-c4cccc(NC(=O)c5ccnn(C)c5=O)c4Cl)c3Cl)nc1OC)C2 [Compound C-22]
35 | – | 10 to 100 | COc1nc(-c2cccc(-c3cccc(NC(=O)c4ccnn(C)c4=O)c3Cl)c2Cl)ccc1CN[C@@H]1CN(C(C)=O)C[C@@H]1O [Compound C-45]
36 | – | 10 to 100 | COc1nc(-c2cccc(-c3cccc(NC(=O)c4ccnn(C)c4=O)c3Cl)c2Cl)ccc1CN1CC(C(=O)NS(C)(=O)=O)C1 [Compound C-46]
37 | – | > 5000 | COc1nc(-c2cccc(-c3cccc(NC(=O)c4ccnn(C)c4=O)c3C)c2Cl)ccc1CN[C@@H]1CCOC[C@@H]1O [Compound C-52]
38 | ≤ 10 | – | CCOC(=O)C1(C)CN(Cc2ccc(-c3cccc(-c4cccc(NC(=O)c5ccnn(C)c5=O)c4C)c3Cl)nc2OC)C1 [Compound C-59]
39 | – | 100 to 1000 | COc1nc(-c2cccc(-c3cccc(NC(=O)c4ccnn(C)c4=O)c3C)c2Cl)ccc1CN1CC(F)(C(=O)O)C1 [Compound C-62]
40 | – | ≤ 10 | COc1nc(-c2cccc(-c3cccc(NC(=O)c4ccnn(C)c4=O)c3C)c2C)ccc1CN[C@@H]1CCOC[C@@H]1O [Compound C-71]
41 | – | > 5000 | COc1nc(-c2cccc(-c3cccc(NC(=O)c4ccnn(C)c4=O)c3C)c2C)ccc1CN1C[C@@H](O)[C@@H]1C [Compound C-74]
42 | – | 10 to 100 | COc1nc(-c2cccc(-c3cccc(NC(=O)c4ccnn(C)c4=O)c3Cl)c2Cl)cnc1CN[C@@H]1CCOC[C@@H]1O [Compound C-83]
43 | – | 10 to 100 | COc1nc(-c2cccc(-c3cccc(NC(=O)c4ccnn(C)c4=O)c3Cl)c2Cl)cnc1CN1CC(O)C1 [Compound C-84]
44 | – | ≤ 10 | COc1nc(-c2cccc(-c3cccc(NC(=O)c4ccnn(C)c4=O)c3Cl)c2Cl)cnc1CN1CC[C@H](O)C1 [Compound C-85]
45 | – | ≤ 10 | COc1nc(-c2cccc(-c3cccc(NC(=O)c4ccnn(C)c4=O)c3C)c2Cl)cnc1CN1CC(O)C1 [Compound C-86]
46 | – | 10 to 100 | COc1nc(-c2cccc(-c3cccc(NC(=O)c4ccnn(C)c4=O)c3Cl)c2Cl)ccc1CNCCC(=O)O [Compound C-93]
47 | – | 10 to 100 | CCOC(=O)CCNCc1ccc(-c2cccc(-c3cccc(NC(=O)c4ccnn(C)c4=O)c3Cl)c2Cl)nc1OC [Compound C-94]
48 | – | 100 to 1000 | CCOC(=O)CCN(Cc1ccc(-c2cccc(-c3cccc(NC(=O)c4ccnn(C)c4=O)c3Cl)c2Cl)nc1OC)C(=O)OCc1oc(=O)oc1C [Compound F-1]
49 | – | 10 to 100 | CCOC(=O)[C@@H](O)CNCc1ccc(-c2cccc(-c3cccc(NC(=O)c4ccnn(C)c4=O)c3Cl)c2Cl)nc1OC [Compound G-1]
50 | – | > 5000 | CCOC(=O)[C@@H]1CN(Cc2ccc(-c3cccc(-c4cccc(NC(=O)c5ccnn(C)c5=O)c4Cl)c3Cl)nc2OC)C(=O)O1 [Compound H-1]
